From ChEMBL document CHEMBL1125512, “Synthesis and antiviral activity of methyl derivatives of 9-[2-(phosphonomethoxy)ethyl]guanine” (J Med Chem, 1992)

Experiments:
Vero = test: In vitro antiherpesvirus activity against vero cells infected with HSV-2(G strain)[plaque reduction assay]; type: functional, cell-based; settings: Chlorocebus sabaeus
[1] = In vitro cellular toxicity in vero cells; type: cell-based; settings: read-out: TC50 (the source's name)
[2] = Toxicity in vitro against CEM cells by XTT assay; type: cell-based; settings: human, CCRF-CEM (CEM) cells; read-out: TC50 (the source's name)
CCRF-CEM [3] = test: In vitro anti -HIV activity tested against CEM cells infected with HIV by XTT assay; type: functional, cell-based; settings: Homo sapiens
[4] = Selectivity Index is the ratio of the TC50 to EC50; settings: read-out: Selectivity index
[5] = In vitro cellular toxicity in MRC-5 cells; type: cell-based, MRC5; settings: human, read-out: TC50 (the source's name)
MRC5 = test: In vitro antiherpesvirus activity against MRC-5 cells infected with HCMV (AD-169 strain); type: functional, cell-based; settings: Homo sapiens
CCRF-CEM [6] = test: In vitro CEM cell growth inhibition by measuring the number of cells after treatment for 72 hours; type: functional; settings: Homo sapiens
[7] = In vitro cellular toxicity in WI-38 cells; type: cell-based; settings: human, read-out: TC50 (the source's name)

Compound | IC50 (Vero) | CC50 ([1]; chlorocebus sabaeus) | CC50 [2] | EC50 (CCRF-CEM [3]) | selectivity ratio [4] | CC50 [5] | IC50 (MRC5) | CC50 (CCRF-CEM [6]) | CC50 [7] | CC50 [1]
CC(C)(OCCn1cnc2c(O)nc(N)nc21)P(=O)(O)O | > 300 µM | > 330 µM | – | – | – | – | – | – | – | –
CC(COCP(=O)(O)O)n1cnc2c(O)nc(N)nc21 (stereo not drawn) | 11 µM | 200 µM | 250 µM | 5 µM | 25 | > 300 µM | 1.3 µM | – | – | –
Cc1nc2c(O)nc(N)nc2n1CCOCP(=O)(O)O | 172 µM | > 330 µM | > 100 µM | > 100 µM | > 1 | – | – | – | – | –
C[C@@H](Cn1cnc2c(O)nc(N)nc21)OCP(=O)(O)O | 43 µM | > 330 µM | 300 µM | 12 µM | 25 | > 330 µM | 16 µM | 12 µM | – | –
C[C@H](Cn1cnc2c(O)nc(N)nc21)OCP(=O)(O)O | 82 µM | > 330 µM | > 500 µM | 1 µM | > 500 | > 330 µM | 16 µM | 180 µM | – | –
CC(OCCn1cnc2c(O)nc(N)nc21)P(=O)(O)O (stereo not drawn) | 158 µM | > 330 µM | > 100 µM | > 100 µM | > 1 | – | – | – | – | –
CC(C)(Cn1cnc2c(O)nc(N)nc21)OCP(=O)(O)O | > 300 µM | – | > 100 µM | 2.6 µM | > 38 | – | > 300 µM | – | > 330 µM | –
Nc1nc2c(ncn2CC(CO)OCP(=O)(O)O)c(=O)[nH]1 (single isomer, unassigned; form 1) | 99 µM | > 310 µM | > 500 µM | 500 µM | > 1 | > 310 µM | 1.6 µM | – | – | –
Nc1nc(O)c2ncn(CC(CO)OCP(=O)(O)O)c2n1 (single isomer, unassigned; form 2) | 97 µM | > 310 µM | 350 µM | > 500 µM | < 1 | > 310 µM | 0.8 µM | – | – | –
Nc1nc2c(ncn2COCCO)c(=O)[nH]1 [ACYCLOVIR] | 1.2 µM | – | – | – | – | – | – | – | – | –
Nc1ncnc2c1ncn2CCOCP(=O)(O)O [ADEFOVIR] | – | – | > 500 µM | 18 µM | > 27 | – | – | – | – | –
Nc1nc2c(ncn2COC(CO)CO)c(=O)[nH]1 [GANCICLOVIR] | – | – | – | – | – | – | 4 µM | – | – | –
Nc1nc2c(ncn2CCOCP(=O)(O)O)c(=O)[nH]1 [GS-438] | 1.1 µM | – | 15 µM | 0.2 µM | 75 | 30 µM | 0.09 µM | 0.2 µM | – | 17 µM
